Source: patent publication US20110319338A1, “PEPTIDES THAT BIND EUKARYOTIC TRANSLATION INITIATION FACTOR 4E” (The Board of Regents of the University of Texas System, priority 2008, published 2011)
Square brackets hold non-standard residues; d marks the D form. Ends that are not written are not given here.

Tested on: ES-2-DualLuc cells
Experiment: Cell-based translation assay with bicistronic R-Luc/F-Luc reporter
Details: peptide 6 hours, 0.3 to 10 micromoles per liter, relative to cells without peptide
Description: FIGS. 2A-2F. Inhibition of cap-dependent translation and cell growth by TAT-4EBP fusion peptides. (FIG. 2A) Representation of the pIRES-DualLuc bicistronic construct containing Renilla Luciferase (R-Luc) and firefly luciferase (F-Luc) genes. In (FIG. 2B), R-Luc and F-Luc activities were assayed in ES-2-DualLuc cells following treatment for 24 hours with rapamycin and for 3 hours with cycloheximide with the indicated concentrations of these drugs, and expressed relative to the respective luciferase activities in cells incubated without drug. Cell viability was not affected by rapamycin and cycloheximide under these conditions. In (FIG. 2C), R-Luc and F-Luc activities were assayed in ES-2-DualLuc cells following treatment for 6 hours with the indicated concentrations of peptides, and expressed relative to the respective luciferase activities in cells incubated without peptide. Shown are results of triplicate assays performed independently two times, and the statistical significance of differences in relative R-Luc and F-Luc activities in cells treated with peptide at a concentration of 10 micromoles per liter. (FIG. 2D) Viability of OVCAR-3 cells at 3 days after addition of the indicated concentrations of peptides, expressed relative to viability of cells incubated without peptide. Shown are results of triplicate assays performed in two independent experiments, and statistical significances of differences in viability of cells treated with TAT-4EBP1-WT vs. TAT-4EBP1-MT, and of cells treated with TAT-4EBP2-WT vs. TAT-4EBP2-MT at a concentration of 10 micromoles per liter. (FIG. 2E) OVCAR-3 cells at 3 days after peptide addition (10 micromoles per liter) viewed under phase-contrast microscopy. (FIG. 2F) Flow cytometric analysis of staining of terminal deoxynucleotidyl transferase-mediated dUTP nick end labeling (TUNEL) in OVCAR-3 cells at 3 days after peptide addition (10 micromoles per liter). Cells incubated for 3 days in the absence of peptide in medium with and without serum are included as controls.
FIGS. 3A-3H. Uptake, binding and inhibitory effects of [DLys6]GnRH-4EBP fusion peptides. (FIG. 3A) Sequences of [DLys6]GnRH, and wild-type and mutant 4EBP1 peptides fused to the agonist. (FIG. 3B) Western blot of GnRH-RI levels in OVCAR-3, ES-2, MDA-MB-231, BJ, HUVEC and SKOV3 cells. (FIG. 3C) Detection of biotinylated peptides in OVCAR-3 and SKOV3 by Texas Red-conjugated streptavidin at 16 hours after peptide addition (3 micromoles per liter). In (FIGS. 3D and 3E), biotinylated peptides were incubated with OVCAR-3 cell lysate as described in FIG. 1. In (FIG. 3D), peptide was pulled down using streptavidin-agarose. Precipitates (P) and supernatants (S) were analyzed by Western blot using eIF4E antibody. In (FIG. 3E), immunoprecipitation was performed using eIF4E antibody, and Western blot performed using eIF4G antibody. (FIG. 3F) R-Luc and F-Luc activities were assayed in ES-2-DualLuc cells at 6 hours after addition of the indicated concentrations of peptides, and are expressed relative to the respective luciferase activities in cells incubated without peptide. Shown are results of triplicate assays performed independently two times, and the statistical significance of differences in relative R-Luc and F-Luc activities in cells treated with peptide at a concentration of 10 micromoles per liter (FIG. 3G) Cells of GnRH-RI-positive and -negative lines were treated with the indicated concentrations of peptides. Viability at 3 days after peptide addition is expressed relative to viability of cells incubated with no peptide. Shown are results of triplicate assays performed in two independent experiments, and statistical significances of differences in viability of cells treated with wild-type vs. mutant [DLys6]GnRH-4EBP1 peptides at a concentration of 10 micromoles per liter. (FIG. 3H) ES-2 and parental SKOV3 cells at 3 days after peptide addition (30 micromoles per liter) viewed under phase-contrast microscopy. […]

In the case of “[DLys6]GnRH: GnRH agonist with a D-amino acid substitution at position 6; GnRH-RI-targeting moiety (QHWSY[dK]LRPG; not fully specified (residue 1, C-terminus); ends and bridges not checked)”, the “cap-dependent translation (R-Luc read-out)” value is reported as “not inhibited”.
